Substitutions are numbered along the chain they refer to. Like-named read-outs stand apart in the source and are kept apart here.
Legend:
Type in all cases: cell-based
AR protein [1] = target: T1, AR protein (Homo sapiens, UniProt P10275, T878A); test: Degradation of AR protein in LNCAP cells (Western blot, 8 h); settings: LNCaP FGC cells
T1 construct: host or cells: LNCaP FGC
T1 sequence (P10275 1-920 T878A): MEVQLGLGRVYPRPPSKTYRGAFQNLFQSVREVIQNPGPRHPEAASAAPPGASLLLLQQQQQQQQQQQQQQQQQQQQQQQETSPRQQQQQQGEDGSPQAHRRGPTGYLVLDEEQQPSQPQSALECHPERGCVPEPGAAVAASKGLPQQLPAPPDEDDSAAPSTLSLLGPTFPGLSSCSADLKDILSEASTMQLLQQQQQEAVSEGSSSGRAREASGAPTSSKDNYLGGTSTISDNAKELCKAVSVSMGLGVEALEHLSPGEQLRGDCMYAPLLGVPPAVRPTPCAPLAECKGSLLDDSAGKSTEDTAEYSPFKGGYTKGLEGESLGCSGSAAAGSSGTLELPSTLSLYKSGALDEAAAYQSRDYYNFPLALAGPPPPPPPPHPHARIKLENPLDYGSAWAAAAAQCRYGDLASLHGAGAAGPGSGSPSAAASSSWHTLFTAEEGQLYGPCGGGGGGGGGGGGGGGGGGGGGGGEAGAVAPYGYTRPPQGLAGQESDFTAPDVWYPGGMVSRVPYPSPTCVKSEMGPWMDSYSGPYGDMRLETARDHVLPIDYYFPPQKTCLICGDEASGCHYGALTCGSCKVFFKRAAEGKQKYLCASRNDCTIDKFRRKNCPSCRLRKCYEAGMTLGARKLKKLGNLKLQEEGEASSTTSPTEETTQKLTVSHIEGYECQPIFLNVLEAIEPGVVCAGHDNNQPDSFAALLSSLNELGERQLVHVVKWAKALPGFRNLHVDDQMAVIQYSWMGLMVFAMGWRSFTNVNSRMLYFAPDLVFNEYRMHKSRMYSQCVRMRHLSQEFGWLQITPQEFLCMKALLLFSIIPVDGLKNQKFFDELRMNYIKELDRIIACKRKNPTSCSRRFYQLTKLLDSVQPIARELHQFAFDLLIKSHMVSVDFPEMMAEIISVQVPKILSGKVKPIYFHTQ
Description: After 8 h, the culture medium was discarded, and the cells were washed with PBS. After the cells were washed with PBS, RIPA lysis buffer containing 1% Protease Inhibitor Cocktail was added, and the total protein extract was obtained after lysis and centrifugation, and the protein concentration in the extract was detected by BCA method. Protein electrophoresis was carried out by SDS-PAGE, after which the proteins were transferred to PVDF (Millipore Sigma Catalog No. PSRP010R5) membrane by 100V constant voltage electrotransfer for 60 min, and the PVDF membrane was placed in 1×TBST solution with 5% milk and blocked at room temperature for 1h. […] The primary antibody solution was discarded, and the PVDF membrane was washed three times with 1× TBST for 5 min each. […] The secondary antibody solution was discarded, and the PVDF membrane was washed three times with 1× TBST for 5 min each. Western membrane imaging was performed using a dual-color infrared laser imaging system (Licor catalog number Odyssey CLX). Bands were analyzed in grayscale using the software Image Studio. For each sample, GAPDH protein bands were detected as internal reference. The degradation rates of the AR protein for the compounds and positive control sample were calculated based on the grayscale of the protein bands.

LNCAP FGC cells = test: Inhibition of LNCAP cell proliferation (WST-8, 96 hours)
Description: Test Example 8 Inhibitory activity of the compounds disclosed in the present disclosure on LNCAP cell proliferation
LNCAP FGC cells (ATCC, CLR-1740) were cultured in RPMI 1640 (ATCC, 30-2001) complete medium containing 10% fetal bovine serum (Hyclone, SH30406.05). On the first day of the experiment, LNCaP FGC cells were inoculated in 96-well plates at a density of 5,000 cells/well using RPMI 1640 medium containing 10% fetal bovine serum, with 100µL of cell suspension per well, and placed in a cell culture incubator with 5% CO2 at 37°C overnight. […] The compound concentrations were prepared in complete […] medium and serially diluted 5-fold starting from 10 µM, resulting in a total of nine concentration points. Wells receiving 100 µL of RPMI 1640 medium containing 10% FBS only were used as controls. The plates were incubated at 37°C in a 5% CO2 incubator for 96 hours.

VCaP cells = test: Inhibition of proliferation of VCaP cells (WST-8, 168 hours)
Description: Test Example 7 Inhibitory activity of the compounds disclosed in the present disclosure on the proliferation of VCaP cells
VCaP cells (ATCC, CRL-2876) were cultured in DMEM (Gibco, 11995-065) complete medium containing 10% fetal bovine serum (Hyclone, SH30406.05). On the first day of the experiment, VCaP cells were inoculated in 96-well plates at a density of 15,000 cells/well using DMEM medium containing 10% fetal bovine serum, with 100µL of cell suspension per well, and placed in a cell culture incubator with 5% CO2 at 37°C overnight. […] The compound concentrations were prepared in complete DMEM medium and serially diluted 5-fold starting from 10 µM, resulting in a total of nine concentration points. Wells receiving 100 µL of DMEM medium containing 10% FBS only were used as blank controls. The plates were incubated at 37°C in a 5% CO2 incubator for 168 hours.

AR protein [2] = target: T2, AR protein (Homo sapiens, UniProt P10275); settings: 8 h
T2 construct: host or cells: VCaP
T2 sequence (P10275 1-920): T1 sequence (P10275 1-920 T878A) with A878T
Description: Test Example 9 Degradation activity of the compounds disclosed in the present disclosure against AR protein in VCAP cells (cell source: ATCC)
AR-positive human prostate cancer cells, VCaP, were inoculated in six-well microplates (Thermo Catalog No. 140675) in DMEM (GiBco Catalog No. 11995-065) containing 10% FBS (Hyclone Catalog No. SH30406.05) at a density of 3 × 10^5 cells/well. […] After 8 h, the culture medium was discarded, and cells were washed with PBS, then RIPA lysis buffer containing 1% Protease Inhibitor Cocktail was added, and the total protein extract was obtained after lysis and centrifugation, and the protein concentration in the extract was detected by BCA method. Protein electrophoresis was carried out by SDS-PAGE, after which the protein was transferred to PVDF (Millipore Sigma catalog number PSRP010R5) membrane by 100V constant-voltage electrotransfer for 60 min, and the PVDF membrane was placed in 1×TBST solution with 5% milk and blocked at room temperature for 1 h. The primary antibody solution (Anti-Androgen receptor, Cell Signaling Technology Catalog No. 5153S; 1: 2000 dilution) was prepared and incubated overnight at 4°C. The primary antibody solution was discarded, and the PVDF membrane was washed three times with 1× TBST for 5 min each. The secondary antibody solution (Thermo catalog number SA5-35571; 1:7500 dilution) was prepared, and the secondary antibody dilution was incubated at room temperature for 1h. The secondary antibody solution was discarded, and the PVDF membrane was washed three times with 1×TBST for 5 min each. Western membrane imaging was performed using a dual-color infrared laser imaging system (Licor catalog number Odyssey CLX). Bands were analyzed in grayscale using the software Image Studio. For each sample, GAPDH protein bands were detected as internal reference. The degradation rates of the AR protein for the compounds and positive control sample were calculated based on the grayscale of the protein bands.

[3] = LNCAP FGC cells, 96 hours, WST-8

## COc1cc(O[C@H]2CC[C@H](NC(=O)c3ccc(N4CCC(CN5CCC6(CC5)COc5c6ccc6c5C(=O)N(C5CCC(=O)NC5=O)C6)(OC)CC4)nn3)CC2)ccc1C#N (relative stereo) [2-264]
AR protein [1]
  Degradation rates of the AR protein in LNCAP cells, 10 nM (%): 52%
  Degradation rates of the AR protein in LNCAP cells, 100 nM (%): 71%
LNCAP FGC cells; [3]
  IC50: 33.6 µM
VCaP cells; VCaP cells, 168 hours, WST-8
  IC50: 0.003 µM

## N#Cc1ccc(O[C@H]2CC[C@H](NC(=O)c3ccc(N4CCC(CN5CCC6(CC5)COc5c6ccc6c5C(=O)N(C5CCC(=O)NC5=O)C6)CC4)nn3)CC2)cc1Cl (relative stereo) [2-313]
AR protein [1]
  Degradation rates of the AR protein in LNCAP cells, 10 nM (%): 75%
  Degradation rates of the AR protein in LNCAP cells, 100 nM (%): 79%
AR protein [2]
  Degradation rates of the AR protein in VCAP cells, 0.5 nM: 78%
  Degradation rates of the AR protein in VCAP cells, 5 nM: 89%
LNCAP FGC cells; [3]
  IC50: 34.3 µM

## COc1cc(O[C@H]2CC[C@H](NC(=O)c3ccc(N4CCC(CN5CCC6(CC5)COc5c6ccc6c5C(=O)N(C5CCC(=O)NC5=O)C6)CC4)nn3)CC2)ccc1C#N (relative stereo) [2-314]
AR protein [1]
  Degradation rates of the AR protein in LNCAP cells, 10 nM (%): 69%
  Degradation rates of the AR protein in LNCAP cells, 100 nM (%): 76%
AR protein [2]
  Degradation rates of the AR protein in VCAP cells, 0.5 nM: 86%
  Degradation rates of the AR protein in VCAP cells, 5 nM: 91%
LNCAP FGC cells; [3]
  IC50: 42.4 µM

## COC1(CN2CCC3(CCc4cc5c(cc4O3)C(=O)N(C3CCC(=O)NC3=O)C5)CC2)CCN(c2ccc(N3CCC4(CC3)C[C@H](C)N(c3ccc(C#N)c(Cl)c3)C4)cc2)CC1 (stereo partly drawn) [2-99]
LNCAP FGC cells
  IC50: 2.71 µM
VCaP cells
  IC50: 0.007 µM

## C[C@H]1CC2(CCN(c3ccc(N4CCC(C)(CN5CCC6(CCc7cc8c(cc7O6)C(=O)N(C6CCC(=O)NC6=O)C8)CC5)CC4)cc3)CC2)CN1c1ccc(C#N)c(Cl)c1 (stereo partly drawn) [2-101]
LNCAP FGC cells
  IC50: 5.08 µM
VCaP cells
  IC50: 0.01 µM

— EP4656642A1, “ESTROGEN RECEPTOR PROTEOLYSIS TARGETING CHIMERA COMPOUND AND USE THEREOF” (GAN & LEE PHARM CO., LTD, priority 2023, dated 2024)
